Source: patent US20220193076A1, “METHODS OF TREATING BREAST CANCER WITH TUCATINIB” (Seagen Inc., priority 2019, published 2022)

Columns and labels:
MATE2K = MATE2K (Homo sapiens, UniProt Q86VL8); test: In vitro inhibition of MATE2K transporter; assay type: in vitro ADME
[1] = Example 1: plasma tucatinib trough concentrations; assay type: in vivo, human; conditions: 300 mg tucatinib bid from Day 2
UGT1A1 = molecular target: T1, UGT1A1 (Homo sapiens, UniProt P22309); test: Ki determination in pooled human liver microsomes, β-estradiol 3-glucuronidation (Example 5); assay type: in vitro ADME
T1 construct: tissue BioreclamationIVT (Baltimore, Md.); host or cells: pooled human liver microsomes, 150 donors
T1 sequence (P22309 26-533): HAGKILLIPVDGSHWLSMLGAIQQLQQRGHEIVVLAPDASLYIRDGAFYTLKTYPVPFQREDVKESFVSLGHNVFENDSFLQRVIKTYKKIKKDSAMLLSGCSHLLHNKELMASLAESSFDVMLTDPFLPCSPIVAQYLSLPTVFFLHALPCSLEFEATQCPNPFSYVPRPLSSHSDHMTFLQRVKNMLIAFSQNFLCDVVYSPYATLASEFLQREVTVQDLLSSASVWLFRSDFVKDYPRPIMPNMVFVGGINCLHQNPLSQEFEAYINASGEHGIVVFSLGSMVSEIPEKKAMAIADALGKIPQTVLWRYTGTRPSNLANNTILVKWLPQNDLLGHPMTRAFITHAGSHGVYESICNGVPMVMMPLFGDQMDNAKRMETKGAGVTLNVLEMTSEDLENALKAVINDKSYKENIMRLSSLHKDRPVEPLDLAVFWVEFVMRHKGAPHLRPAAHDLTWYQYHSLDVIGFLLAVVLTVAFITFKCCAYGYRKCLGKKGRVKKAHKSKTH
Description: The objective of this study was to evaluate in vitro the Ki of tucatinib of the following human hepatic cytochrome P450 (CYP) enzymes (CYP2C8, CYP2C9, and CYP3A4) and UGT1A1. […] Pooled human liver microsomes (HLM) from 150 individuals (79 males and 71 females) were obtained from BioreclamationIVT (Baltimore, Md.) and stored at approximately −70° C. The microsomes were characterized by the supplier for total protein and selected cytochrome P450 activities. […] The final organic solvent contribution was ≤1%. Incubations were terminated by the addition of chilled acetonitrile containing a stable isotope-labeled internal standard. […] Samples were analyzed by liquid chromatography with tandem mass spectrometry (LC-MS/MS). Analyte concentrations were quantified by LC-MS/MS and interpolated from standard curves of authentic analyte. […] Activities were calculated based on analyte concentration, incubation time, and protein concentration. Enzymatic activity (pmol/minute/mg protein) was expressed as the formation of the analyte per final protein concentration per incubation time. Activity remaining was expressed as the enzymatic activity at each concentration point of the test article normalized by the solvent control mean activity. […]

[2] = Clinical plasma concentration of tucatinib; assay type: in vivo; conditions: human, read-out: Mean clinical maximum observed concentration (Cmax)
OAT2 = molecular target: T2, OAT2 (Homo sapiens, UniProt Q9Y694); test: Inhibition of OAT2 mediated transport of creatinine in transfected MDCK-II cells (Example 3); assay type: in vitro ADME; conditions: MDCK-II, read-out: Maximum inhibition of OAT2 mediated transport of creatinine
T2 construct: expressed in transfected cells; host or cells: MDCK-II
T2 sequence (Q9Y694 1-548): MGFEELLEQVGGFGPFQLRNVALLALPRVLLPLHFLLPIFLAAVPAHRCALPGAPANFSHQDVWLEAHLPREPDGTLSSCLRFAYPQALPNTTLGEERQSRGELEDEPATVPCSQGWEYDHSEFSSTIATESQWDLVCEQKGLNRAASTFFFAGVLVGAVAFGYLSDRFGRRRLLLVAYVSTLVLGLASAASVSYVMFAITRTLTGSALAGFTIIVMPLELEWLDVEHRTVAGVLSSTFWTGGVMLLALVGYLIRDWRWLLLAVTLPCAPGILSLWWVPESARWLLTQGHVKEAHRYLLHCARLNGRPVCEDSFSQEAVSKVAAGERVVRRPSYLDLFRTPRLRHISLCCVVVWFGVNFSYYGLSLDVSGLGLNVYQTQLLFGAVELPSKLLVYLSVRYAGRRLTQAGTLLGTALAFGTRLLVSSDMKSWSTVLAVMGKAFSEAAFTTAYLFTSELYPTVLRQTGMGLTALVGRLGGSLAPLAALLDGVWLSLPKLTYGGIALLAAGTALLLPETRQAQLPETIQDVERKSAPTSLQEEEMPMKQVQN
Description: Substrate dependent inhibition is common among transporters including MATE1 and MATE2-K. In this study, creatinine was used as the probe substrate to assess the inhibitory potency of Tucatinib and ONT-993. OAT2, OCT2, OCT3, MATE1, and MATE2-K are the renal transporters identified to transport creatinine. Tucatinib and its metabolite ONT-993 were tested as potential inhibitors of OAT2, OCT2, MATE1, and MATE2-K mediated transport using creatinine as a probe substrate.
For this study, MDCK-II were maintained in DMEM with low glucose and 10% FBS. Cells were seeded at 60K±10K cells/well on 96-well, transwell membrane plates approximately 24 hours before transfection. Transport assays were carried out approximately 48 hours after transfection. Cells were transfected and treated to express the transporter of interest or treated with a control vector. The transport of creatinine was determined by radiometric detection.
Net transporter mediated uptake of the substrate by each transporter was calculated as follows: Net Transporter Mediated Substrate Uptake (pmol/min/cm^2)=(Cellular accumulation in the presence of the transporter)−(Mean cellular accumulation in the absence of the transporter.
Percent inhibition was calculated as follows: Percent inhibition=100−(100*(transporter mediated uptake)with inhibition/(transporter mediated uptake)without inhibition) […]

Sequence of MATE2K (Q86VL8 1-566 isoform Q86VL8-3): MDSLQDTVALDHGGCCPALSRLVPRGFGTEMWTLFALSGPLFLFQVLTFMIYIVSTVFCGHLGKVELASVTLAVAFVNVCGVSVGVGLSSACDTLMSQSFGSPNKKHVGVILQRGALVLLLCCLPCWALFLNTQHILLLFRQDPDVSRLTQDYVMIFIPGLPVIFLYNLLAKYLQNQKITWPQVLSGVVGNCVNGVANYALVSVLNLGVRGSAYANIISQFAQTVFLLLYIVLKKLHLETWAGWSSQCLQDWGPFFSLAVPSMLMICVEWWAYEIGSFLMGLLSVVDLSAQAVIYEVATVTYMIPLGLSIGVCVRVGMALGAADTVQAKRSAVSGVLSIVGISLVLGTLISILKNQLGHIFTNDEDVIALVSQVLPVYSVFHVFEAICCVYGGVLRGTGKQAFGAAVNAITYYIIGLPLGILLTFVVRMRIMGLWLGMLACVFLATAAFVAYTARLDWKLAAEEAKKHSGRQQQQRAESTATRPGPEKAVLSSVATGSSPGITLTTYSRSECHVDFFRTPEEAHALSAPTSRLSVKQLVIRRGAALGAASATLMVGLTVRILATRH

Q: Which results are given for `Cc1cc(Nc2ncnc3ccc(NC4=NC(C)(C)CO4)cc23)ccc1Oc1ccn2ncnc2c1` [tucatinib]?
A: IC50 (MATE2K): 0.14 µM; Steady-state plasma concentrations reached by [1]: ≤ 6 days; Inhibition mechanism, UGT1A1 (UGT1A1): competitive inhibition; Ki (UGT1A1; marker substrate β-estradiol): 1.81 µM; Cmax [2]: 1 to 2 µM; inhibition at 10 µM (OAT2): 14.7%
